Source: article PMC7160333, “Physiological Role of Glutamate Dehydrogenase in Cancer Cells” (Frontiers in Oncology, 2020)
Read-outs that look alike come from different tables or passages of the source.

How the values were obtained:
[1] = target: HepM GDH1 (Rattus norvegicus, UniProt P10860); test: GDH reverse (aminating) reaction activity in hepatoma mitochondria (HepM); type: biochemical; details: HepM; for K0.5 NH4+: reverse reaction, Hill equation; for Km: read-out: Km NH4+
Experimental: (§1) Tightly coupled mitochondria were isolated from fed-rat liver (RLM) and AS-30D cells (HepM) as described elsewhere ([89], [90]). […] The resulting mitochondrial fractions were resuspended at 30 to 80 mg protein/mL in SHE buffer with 1 mM PMSF, 1 mM EDTA, 5 mM DTT, and 10% glycerol, and stored at −70°C until use for determination of enzyme activity and Western blotting.

[2] = target: RLM GDH1 (Rattus norvegicus, UniProt P10860); test: GDH reverse (aminating) reaction activity in rat liver mitochondria (RLM); type: biochemical; details: RLM; for K0.5 NH4+: reverse reaction, Hill equation; for Km: read-out: Km NH4+
Experimental: as §1

[3] = tested on: cancer cells; test: Viability by trypan blue assay in 2-D cultures with ammonium; type: cell-based, human; details: all culture conditions
[4] = tested on: HeLa MCTS; test: HeLa multicellular tumor spheroid (MCTS) growth with ammonium; type: cell-based, human
Experimental: (§2) After 5 days, the culture medium was refreshed, and the MCTSs formed were placed under slow orbital shaking (20–50 rpm) at 37°C and 95% air/5% CO2. […] The spheroid growth was determined at the indicated times by measuring MCTS diameter with a calibrated reticule (1/10 mm) in an inverted phase contrast microscope (Zeiss, Thornwood, NY, USA) ([86]).

[5] = tested on: MDA-MB-231 MCTS; test: MDA-MB-231 multicellular tumor spheroid (MCTS) growth with ammonium; type: cell-based, human
Experimental: as §2

[6] = target: GDH in HepM and RLM (Rattus norvegicus, UniProt P10860); test: GDH reverse reaction kinetics, summary statements for HepM and RLM; type: biochemical
Experimental: The decrease in the absorbance at 340 nm was followed for several minutes (~10 min) to allow for full development of the pronounced enzyme hysteretic behavior, although the initial signal decrease (1–3 min) was taken to calculate the GDH rates. The protein concentration ranges used for each mitochondrial type were well within the linearity range of enzyme activity. To calculate the kinetic parameters, the experimental data were fitted by non-linear regression analysis to the Hill or MWC equation, using the Microcal Origin 5.0 software (OriginLab, Northampton, MA, USA).

[7] = tested on: 3T3 fibroblasts; details: for Duplication time: 3T3, 2-D culture, n = 3; for Maximal cellular densities: reached at day 5
Experimental: (§3) All cancer and non-cancer cell lines used were purchased from ATCC and cultured in DMEM (Sigma-Aldrich) supplemented with 10% fetal bovine serum (Biowest, Nuaillé, France) and 10,000 U penicillin/streptomycin (Sigma-Aldrich) and placed under a humidified atmosphere of 5% CO2/95% air at 37°C.
(§4) Cell growth was followed by counting cellular density every 24 h during 7 to 8 days. […] The duplication time was determined by using the following equation: n=1/[3.32(logNF-logNI)]/(tF-tI) , where NF represents the number of cultured cells at the end of the exponential growth phase; NI represents the number of cells at the beginning of the growth curve; tF is the final time at which cells were harvested, and tI is the initial culture time. The specific growth rate μ was calculated from the slope of a semilogarithmic plot of cell densities in the exponential growth phase vs. time ([88]).

[8] = tested on: total GDH activity (GDH1 + GDH2) in HeLa and MCF-7 cells; details: 5 mM NH4Cl in culture medium, 5 days, data not shown
[9] = tested on: MCF-7 cells; set-up: method as in PMID 28303961; details: MCF-7, ammonium 2–5 mM; cited from earlier work
[10] = tested on: GDH; details: GDH1, reported values; cited from earlier work
[11] = tested on: recombinant human GDH isoforms (GDH1 and GDH2), bovine liver GDH, Ox brain GDH, dogfish liver GDH, rat brain GDH, and bovine brain GDH isoforms; set-up: method as in PMID 4381532, PMID 7588764, PMID 17924438, PMID 23420347, PMID 7190024; details: pH range of 7.4–8.7; cited from earlier work
[12] = tested on: PC3 cells; details: for Maximal cellular densities: reached at day 5
Experimental: as §3, §4

[13] = tested on: HeLa cells; details: for Duplication time: 2-D culture, n = 3; for Maximal cellular densities: reached at day 4
Experimental: as §3, §4

[14] = tested on: SiHa cells; details: for Duplication time: 2-D culture, n = 3; for Maximal cellular densities: reached at day 6
Experimental: as §3, §4

[15] = tested on: A549 cells; details: for Duplication time: A549, 2-D culture, n = 3; for Maximal cellular densities: reached at day 6
Experimental: as §3, §4

[16] = tested on: MCF-7 cells; details: for Duplication time: MCF-7, 2-D culture, n = 3; for Maximal cellular densities: reached at day 6
Experimental: as §3, §4

[17] = tested on: DU145 cells; details: for Duplication time: DU145, 2-D culture, n = 3; for Maximal cellular densities: reached at day 5
Experimental: as §3, §4

[18] = tested on: Colo 205 cells; details: for Duplication time: Colo 205, 2-D culture, n = 3; for Maximal cellular densities: reached at day 6
Experimental: as §3, §4

[19] = tested on: MDA-MB-231 cells; details: for Duplication time: MDA-MB-231, 2-D culture, n = 3
Experimental: as §3, §4

[20] = tested on: HFF-1 fibroblasts; details: for Duplication time: HFF-1, 2-D culture, n = 3; for Maximal cellular densities: reached at day 5
Experimental: as §3, §4

[21] = pH 7.2, MWC equation, GTP inhibition, saturating ADP
[22] = pH 7.5, MWC equation, GTP inhibition, saturating ADP

HepM GDH1, sequence (P10860 54-558): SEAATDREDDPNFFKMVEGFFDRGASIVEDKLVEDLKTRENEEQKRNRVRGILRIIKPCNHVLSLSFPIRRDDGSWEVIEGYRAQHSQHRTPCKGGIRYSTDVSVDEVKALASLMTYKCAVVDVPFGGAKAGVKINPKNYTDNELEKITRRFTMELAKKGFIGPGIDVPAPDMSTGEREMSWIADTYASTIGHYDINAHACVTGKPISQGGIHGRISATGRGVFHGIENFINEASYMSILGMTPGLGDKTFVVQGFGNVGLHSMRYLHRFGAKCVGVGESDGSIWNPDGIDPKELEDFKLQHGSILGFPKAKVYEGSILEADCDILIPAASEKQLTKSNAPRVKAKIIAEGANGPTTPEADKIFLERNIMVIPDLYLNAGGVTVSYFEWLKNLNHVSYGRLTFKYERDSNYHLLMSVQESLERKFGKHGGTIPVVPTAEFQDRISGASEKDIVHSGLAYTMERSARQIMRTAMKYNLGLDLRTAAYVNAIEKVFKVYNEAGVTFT
RLM GDH1, sequence (P10860 54-558): as above
GDH in HepM and RLM, sequence (P10860 54-558): as above

Structure (SMILES): Cl.N [NH4Cl, Ammonium chloride]
- K0.5 NH4+ ([1]; pH 7.2, 37°C): 25.2 ± 8 mM
- nH (Hill coefficient) for NH4+ ([1]; pH 7.2, Hill equation): 2.12 ± 0.7
- Km [1, 21]: 12 ± 2.6 mM
- Km ([1]; pH 7.2, MWC equation, with ADP): 11.2 ± 3.5 mM
- K0.5 NH4+ ([1]; pH 7.5, 37°C): 26.8 ± 7.2 mM
- nH (Hill coefficient) for NH4+ ([1]; pH 7.5, Hill equation): 1.5 ± 0.7
- Km [1, 22]: 10.3 ± 2.6 mM
- Km ([1]; pH 7.5, MWC equation, with ADP): 9.3 ± 7.2 mM
- K0.5 NH4+ ([2]; pH 7.2, 37°C): 23.9 ± 3.7 mM
- nH (Hill coefficient) for NH4+ ([2]; pH 7.2, Hill equation): 1.97 ± 0.8
- Km [2, 21]: 8.5 ± 4.5 mM
- Km ([2]; pH 7.2, MWC equation, with ADP): 18 ± 11 mM
- K0.5 NH4+ ([2]; pH 7.5, 37°C): 18.2 ± 5.9 mM
- nH (Hill coefficient) for NH4+ ([2]; pH 7.5, Hill equation): 1.4 ± 0.4
- Km [2, 22]: 5.6 ± 3.6 mM
- Km ([2]; pH 7.5, MWC equation, with ADP): 8.8 ± 4.1 mM
- Viability [3]: higher than 90%
- MCTS growth (diameter) ([4]; 5 and 10 mM ammonium): inhibited
- MCTS growth (diameter) ([4]; ammonium supplementation): did not stimulate growth
- MCTS growth (diameter) ([5]; ammonium 10 mM): clearly toxic
- MCTS growth (diameter) ([5]; ammonium 0.5–5 mM): promoted enhanced growth rates
- K0.5 for NH4+ ([6]; Hill equation, HepM and RLM, summary): over 20 mM
- Km ([6]; MWC equation, pH 7.5, summary of Table 3, read-out: Km for ammonium): ~9 mM
- Duplication time ([7]; +5 mM NH4Cl): 46 ± 2 h
- Duplication time ([7]; +10 mM NH4Cl): 60 ± 1 h
- Maximal cellular densities ([7]; 3T3, +5 mM NH4Cl): 45 ± 3 ×10^3
- Maximal cellular densities ([7]; 3T3, +10 mM NH4Cl): 36 ± 2 ×10^3
- IC50 ([7]; read-out: IC50 for decrease of growth, mouse 3T3 fibroblasts, data not shown): ~1000 µM
- Change of total GDH activity [8]: did not alter the total GDH activity or induced a slight (~20%) decrease
- Cell proliferation [9]: only slightly stimulated
- reported K0.5 for ammonium [10]: 15 to 60 mM
- K0.5 NH4+ [11]: 6.5 to 80 mM
- Duplication time ([12]; PC3, 2-D culture, +10 mM NH4Cl, n = 3): 26 ± 1 h
- Maximal cellular densities ([12]; PC3, +5 mM NH4Cl): 136 ± 2 ×10^3
- Maximal cellular densities ([12]; PC3, +10 mM NH4Cl): 141 ± 1.4 ×10^3
- Duplication time ([13]; +5 mM NH4Cl): 25.5 ± 2 h
- Duplication time ([13]; +10 mM NH4Cl): 24 ± 2 h
- Maximal cellular densities ([13]; +5 mM NH4Cl): 153 ± 13 ×10^3
- Maximal cellular densities ([13]; +10 mM NH4Cl): 163 ± 9 ×10^3
- Rescue of growth after glutamine removal from the culture medium ([13]; NH4Cl 1–10 mM, data not shown): did not rescue their growth
- Duplication time ([14]; +5 mM NH4Cl): 51 ± 4 h
- Duplication time ([14]; +10 mM NH4Cl): 55 ± 5 h
- Maximal cellular densities ([14]; +5 mM NH4Cl): 86 ± 7 ×10^3
- Maximal cellular densities ([14]; +10 mM NH4Cl): 82 ± 5 ×10^3
- Duplication time ([15]; +5 mM NH4Cl): 20 ± 2 h
- Duplication time ([15]; +10 mM NH4Cl): 17 ± 3 h
- Maximal cellular densities ([15]; A549, +5 mM NH4Cl): 49 ± 4 ×10^3
- Maximal cellular densities ([15]; A549, +10 mM NH4Cl): 56 ± 2 ×10^3
- Duplication time ([16]; +5 mM NH4Cl): 37 ± 2 h
- Duplication time ([16]; +10 mM NH4Cl): 45 ± 6 h
- Maximal cellular densities ([16]; MCF-7, +5 mM NH4Cl): 72 ± 6 ×10^3
- Maximal cellular densities ([16]; MCF-7, +10 mM NH4Cl): 76 ± 5 ×10^3
- Proliferation rates ([17]; DU145, 0.1 and 0.5 mM NH4Cl, data not shown): increased proliferation rates
- Duplication time ([17]; +5 mM NH4Cl): 32 ± 2 h
- Duplication time ([17]; +10 mM NH4Cl): 35 ± 3 h
- Maximal cellular densities ([17]; DU145, +5 mM NH4Cl): 92 ± 6 ×10^3
- Maximal cellular densities ([17]; DU145, +10 mM NH4Cl): 85 ± 4 ×10^3
- Duplication time ([18]; +5 mM NH4Cl): 48 ± 2 h
- Duplication time ([18]; +10 mM NH4Cl): 44 ± 4 h
- Maximal cellular densities ([18]; Colo 205, +5 mM NH4Cl): 68 ± 6 ×10^3
- Maximal cellular densities ([18]; Colo 205, +10 mM NH4Cl): 66 ± 6 ×10^3
- Duplication time ([19]; +5 mM NH4Cl): 26 ± 3 h
- Duplication time ([19]; +10 mM NH4Cl): 25 ± 1 h
- Maximal cellular densities ([19]; MDA-MB-231, +5 mM NH4Cl, reached at day 4): 145 ± 13 ×10^3
- Rescue of growth after glutamine removal from the culture medium ([19]; MDA-MB-231, NH4Cl 1–10 mM, data not shown): did not rescue their growth
- Duplication time ([20]; +5 mM NH4Cl): 38 ± 12 h
- Duplication time ([20]; +10 mM NH4Cl): 55 ± 2 h
- Maximal cellular densities ([20]; HFF-1, +5 mM NH4Cl): 60 ± 10 ×10^3
- Maximal cellular densities ([20]; HFF-1, +10 mM NH4Cl): 46 ± 3 ×10^3
- IC50 ([20]; read-out: IC50 for decrease of growth, human HFF-1 fibroblasts, data not shown): ~1000 µM
